In ChEMBL document CHEMBL5465560, “Selectivity Literature for EUbOPEN Chemogenomic Library” (2024):
pIC50: −log10 of the molar value. Each block holds one compound with its values, some of them ahead of it.

Experiments:
[1] = molecular target: Ribosomal protein S6 kinase alpha-5 (Homo sapiens) (UniProt O75582); assay: Selectivity interaction (Kinase panel (Z-LYTE Assay)) EUB0001632a RPS6KA5; conditions: at 10 µM
[2] = molecular target: T1, Receptor-type tyrosine-protein kinase FLT3 (Homo sapiens, UniProt P36888); assay: Selectivity interaction (Kinase panel (Invitrogen, enzymatic assay)) EUB0000162b FLT3
T1 sequence (P36888 whole entry): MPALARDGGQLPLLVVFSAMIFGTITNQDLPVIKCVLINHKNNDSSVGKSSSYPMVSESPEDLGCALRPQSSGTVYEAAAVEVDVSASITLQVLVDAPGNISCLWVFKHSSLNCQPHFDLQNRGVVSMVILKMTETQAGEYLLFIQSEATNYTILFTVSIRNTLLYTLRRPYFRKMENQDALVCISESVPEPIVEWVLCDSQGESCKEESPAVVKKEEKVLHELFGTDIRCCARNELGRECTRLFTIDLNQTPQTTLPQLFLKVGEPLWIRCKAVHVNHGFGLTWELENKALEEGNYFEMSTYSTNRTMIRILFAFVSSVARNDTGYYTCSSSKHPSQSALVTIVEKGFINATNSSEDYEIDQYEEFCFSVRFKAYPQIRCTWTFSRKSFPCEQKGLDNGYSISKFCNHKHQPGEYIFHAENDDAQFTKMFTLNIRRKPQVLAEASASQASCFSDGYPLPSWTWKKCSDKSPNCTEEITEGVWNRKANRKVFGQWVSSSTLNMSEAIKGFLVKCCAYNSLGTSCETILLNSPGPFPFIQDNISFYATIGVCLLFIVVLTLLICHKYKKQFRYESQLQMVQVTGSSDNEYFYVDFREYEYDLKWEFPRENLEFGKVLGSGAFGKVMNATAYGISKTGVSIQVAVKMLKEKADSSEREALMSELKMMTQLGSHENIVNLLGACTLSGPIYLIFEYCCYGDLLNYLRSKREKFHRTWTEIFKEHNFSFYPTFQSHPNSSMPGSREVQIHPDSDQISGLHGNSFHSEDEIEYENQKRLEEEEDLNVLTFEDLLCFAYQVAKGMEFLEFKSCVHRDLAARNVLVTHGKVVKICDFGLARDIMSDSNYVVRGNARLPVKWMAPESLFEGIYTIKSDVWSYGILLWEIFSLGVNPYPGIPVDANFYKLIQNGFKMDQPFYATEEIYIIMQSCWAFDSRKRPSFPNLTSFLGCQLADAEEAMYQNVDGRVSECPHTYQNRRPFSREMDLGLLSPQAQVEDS

[3] = molecular target: Cyclin-dependent kinase 9 (Homo sapiens, UniProt P50750); assay: Selectivity interaction (KinomeScan (DiscoverX)) EUB0000092b CDK9; conditions: at 10 µM
[4] = molecular target: T2, Ephrin type-A receptor 1 (Homo sapiens) (UniProt P21709); assay: Selectivity interaction (KinomeScan (DiscoverX)) EUB0000092b EPHA1; conditions: at 10 µM
T2 sequence (whole entry): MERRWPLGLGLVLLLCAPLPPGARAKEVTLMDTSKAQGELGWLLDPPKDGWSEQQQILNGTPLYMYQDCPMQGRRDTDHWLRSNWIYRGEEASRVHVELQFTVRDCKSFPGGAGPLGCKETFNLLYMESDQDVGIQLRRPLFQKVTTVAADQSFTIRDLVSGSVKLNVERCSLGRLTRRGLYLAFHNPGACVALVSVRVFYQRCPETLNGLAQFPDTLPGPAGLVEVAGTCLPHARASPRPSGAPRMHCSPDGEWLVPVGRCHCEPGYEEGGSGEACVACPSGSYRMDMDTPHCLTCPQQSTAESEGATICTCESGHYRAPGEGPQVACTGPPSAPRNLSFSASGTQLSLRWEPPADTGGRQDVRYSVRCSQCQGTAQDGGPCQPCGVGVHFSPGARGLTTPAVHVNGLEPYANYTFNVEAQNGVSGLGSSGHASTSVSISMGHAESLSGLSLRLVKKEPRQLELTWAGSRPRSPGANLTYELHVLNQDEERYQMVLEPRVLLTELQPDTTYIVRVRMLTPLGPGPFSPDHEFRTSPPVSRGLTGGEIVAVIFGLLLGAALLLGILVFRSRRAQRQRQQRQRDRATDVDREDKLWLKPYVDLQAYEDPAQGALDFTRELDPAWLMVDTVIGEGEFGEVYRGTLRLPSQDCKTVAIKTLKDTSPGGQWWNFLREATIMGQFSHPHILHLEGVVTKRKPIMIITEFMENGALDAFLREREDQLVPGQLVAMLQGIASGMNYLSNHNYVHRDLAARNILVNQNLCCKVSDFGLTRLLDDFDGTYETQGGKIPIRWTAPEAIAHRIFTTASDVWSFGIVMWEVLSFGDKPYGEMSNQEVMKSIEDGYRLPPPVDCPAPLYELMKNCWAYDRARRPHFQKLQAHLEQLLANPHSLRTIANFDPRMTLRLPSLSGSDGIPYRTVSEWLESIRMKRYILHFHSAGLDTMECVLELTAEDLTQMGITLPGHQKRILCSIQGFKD

[5] = molecular target: T3, Serine/threonine-protein kinase TBK1 (Homo sapiens) (UniProt Q9UHD2); assay: Selectivity interaction (ActivX KiNativ screen (ex vivo kinase selectivity in human PBMCs)) EUB0001619a TBK1; format: cell-based; conditions: PBMC, at 1 µM
T3 sequence (whole entry): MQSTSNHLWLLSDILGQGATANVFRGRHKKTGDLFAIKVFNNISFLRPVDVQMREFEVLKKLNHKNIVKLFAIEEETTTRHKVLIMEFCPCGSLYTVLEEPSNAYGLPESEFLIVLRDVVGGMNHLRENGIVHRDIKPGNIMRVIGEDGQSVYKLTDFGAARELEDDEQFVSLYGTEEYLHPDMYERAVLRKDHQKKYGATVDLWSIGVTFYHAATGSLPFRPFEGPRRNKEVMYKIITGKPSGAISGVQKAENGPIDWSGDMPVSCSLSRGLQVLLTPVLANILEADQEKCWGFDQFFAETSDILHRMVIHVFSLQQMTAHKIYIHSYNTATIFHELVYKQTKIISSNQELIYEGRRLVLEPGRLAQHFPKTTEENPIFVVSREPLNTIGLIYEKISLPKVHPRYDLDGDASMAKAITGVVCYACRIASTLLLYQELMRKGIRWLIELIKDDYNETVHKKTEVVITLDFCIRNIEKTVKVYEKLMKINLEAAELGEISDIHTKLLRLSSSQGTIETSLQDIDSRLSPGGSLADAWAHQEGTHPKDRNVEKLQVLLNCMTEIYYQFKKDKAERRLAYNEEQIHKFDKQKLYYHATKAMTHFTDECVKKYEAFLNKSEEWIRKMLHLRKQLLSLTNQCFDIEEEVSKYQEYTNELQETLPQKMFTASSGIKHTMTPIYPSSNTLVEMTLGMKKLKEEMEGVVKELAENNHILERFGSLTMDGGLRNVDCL

Cyclin-dependent kinase 9, sequence (P50750 whole entry): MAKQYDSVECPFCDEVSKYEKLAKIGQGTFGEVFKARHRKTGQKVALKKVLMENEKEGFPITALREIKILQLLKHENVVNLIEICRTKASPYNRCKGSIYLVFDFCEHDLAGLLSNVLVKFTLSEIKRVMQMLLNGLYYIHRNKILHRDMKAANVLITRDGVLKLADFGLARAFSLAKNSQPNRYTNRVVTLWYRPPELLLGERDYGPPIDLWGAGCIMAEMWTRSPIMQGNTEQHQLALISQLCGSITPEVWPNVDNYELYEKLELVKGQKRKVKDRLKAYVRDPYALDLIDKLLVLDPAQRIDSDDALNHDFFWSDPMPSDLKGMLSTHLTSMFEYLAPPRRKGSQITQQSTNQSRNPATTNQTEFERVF
Ribosomal protein S6 kinase alpha-5 (Homo sapiens), sequence (O75582 whole entry, looked up): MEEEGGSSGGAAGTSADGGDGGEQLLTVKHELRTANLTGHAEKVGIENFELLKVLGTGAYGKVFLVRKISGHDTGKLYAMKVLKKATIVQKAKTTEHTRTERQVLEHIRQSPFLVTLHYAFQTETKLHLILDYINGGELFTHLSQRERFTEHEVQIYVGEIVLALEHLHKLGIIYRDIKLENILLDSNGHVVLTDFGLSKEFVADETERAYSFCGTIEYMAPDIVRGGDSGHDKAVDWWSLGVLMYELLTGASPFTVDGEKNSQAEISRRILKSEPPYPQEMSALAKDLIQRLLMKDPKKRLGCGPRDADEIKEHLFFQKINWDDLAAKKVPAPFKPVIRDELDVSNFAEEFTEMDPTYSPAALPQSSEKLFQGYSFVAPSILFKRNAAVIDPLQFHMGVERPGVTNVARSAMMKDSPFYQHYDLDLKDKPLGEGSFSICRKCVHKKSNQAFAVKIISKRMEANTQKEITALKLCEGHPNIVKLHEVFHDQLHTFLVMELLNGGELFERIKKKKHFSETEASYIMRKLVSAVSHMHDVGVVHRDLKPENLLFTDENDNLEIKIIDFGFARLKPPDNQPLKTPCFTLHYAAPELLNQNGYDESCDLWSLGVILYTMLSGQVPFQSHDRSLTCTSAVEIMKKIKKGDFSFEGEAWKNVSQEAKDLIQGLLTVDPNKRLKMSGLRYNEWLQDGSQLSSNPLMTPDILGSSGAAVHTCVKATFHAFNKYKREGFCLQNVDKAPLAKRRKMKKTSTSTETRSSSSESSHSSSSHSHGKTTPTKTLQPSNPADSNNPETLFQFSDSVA

- % of control [1]: 0.545%
Compound: Cn1cc(-n2cnc3c(NCc4nc5cc(Cl)c(Cl)cc5[nH]4)nc(N4CCOCC4)nc32)cn1

- pIC50 [2]: 5.87
Compound: CN(C)C(=O)Cn1cc(-c2ccc(-c3cncc4ccccc34)cc2)cn1

Compound: CCC(=O)N1CCN(c2ccc(-n3c(=O)ccc4cnc5ccc(-c6cnc7ccccc7c6)cc5c43)cc2C(F)(F)F)CC1
- % of control [3]: 94%
- % of control [4]: 62%

Compound: N#Cc1cccc(-c2c[nH]c3ncnc(N4CCOCC4)c23)c1
- % of inhibition [5]: 19%
